Assay results published in PMC9841593 (ACS Medicinal Chemistry Letters, 2022).

Assay: pH-metric titration of pKa

Compound	Measured pKa (phenolic proton, pH-metric titration)	pKa
O=C(O)c1[nH]c(Br)cc(=O)c1O [Compound 2]	9.79 ± 0.01	
O=c1cc(Br)[nH]c(-c2nnn[nH]2)c1O [Compound 4]		> 12
NC(=O)c1[nH]c(Br)cc(=O)c1O [Compound 3]		9.64 ± 0.02
N/C(=N\O)c1[nH]c(Br)cc(=O)c1O [Compound 6]		9.06 ± 0.02
